Starred links: 1 amine or outer side, 2 acyl side, 3 side chain; linkers in the order of their positions; H or OH if unused. Positions of bridges follow the written chain, without caps; N, C: chain ends. Non-standard residues stand in square brackets, D forms with d. Residues, ends and D or L forms follow the SMILES beside them. Hag = O=C([C@H](CCC=[*:3])N[*:1])[*:2]; Phe(3-F) = N[C@@H](Cc1cccc(F)c1)C(=O)O; AllylGly = C=CC[C@H](N)C(=O)O; Orn = NCCC[C@H](N)C(=O)O; Ac4c = NC1(C(=O)O)CCC1
What follows are molecules tested against T1, Menin/Histone-lysine N-methyltransferase MLL (Homo sapiens, UniProt O00255) (assay: Inhibition of Menin-MLL protein-protein interaction (unknown origin) preincubated for 1 hr in presence of FLSN-MBM1 peptide followed by compound addition and measured after 1 hr by fluorescence polarization assay).
T1 sequence (O00255 whole entry): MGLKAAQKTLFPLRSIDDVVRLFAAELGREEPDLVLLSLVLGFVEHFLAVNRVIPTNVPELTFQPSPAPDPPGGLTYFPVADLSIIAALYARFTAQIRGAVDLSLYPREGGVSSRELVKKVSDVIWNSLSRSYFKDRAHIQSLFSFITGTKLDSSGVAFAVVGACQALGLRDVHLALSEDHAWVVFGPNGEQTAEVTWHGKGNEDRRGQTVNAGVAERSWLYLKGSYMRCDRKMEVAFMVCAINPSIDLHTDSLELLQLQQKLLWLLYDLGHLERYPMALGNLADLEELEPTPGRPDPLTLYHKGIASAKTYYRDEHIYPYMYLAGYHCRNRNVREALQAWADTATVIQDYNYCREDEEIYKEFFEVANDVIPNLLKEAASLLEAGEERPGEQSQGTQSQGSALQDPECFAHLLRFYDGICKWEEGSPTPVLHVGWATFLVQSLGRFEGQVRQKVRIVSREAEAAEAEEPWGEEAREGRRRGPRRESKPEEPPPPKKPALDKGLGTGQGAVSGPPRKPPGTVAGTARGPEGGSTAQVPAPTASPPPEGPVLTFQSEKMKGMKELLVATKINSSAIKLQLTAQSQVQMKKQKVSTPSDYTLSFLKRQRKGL
T1 sequence (Q03164 1-2718 partner limits assumed): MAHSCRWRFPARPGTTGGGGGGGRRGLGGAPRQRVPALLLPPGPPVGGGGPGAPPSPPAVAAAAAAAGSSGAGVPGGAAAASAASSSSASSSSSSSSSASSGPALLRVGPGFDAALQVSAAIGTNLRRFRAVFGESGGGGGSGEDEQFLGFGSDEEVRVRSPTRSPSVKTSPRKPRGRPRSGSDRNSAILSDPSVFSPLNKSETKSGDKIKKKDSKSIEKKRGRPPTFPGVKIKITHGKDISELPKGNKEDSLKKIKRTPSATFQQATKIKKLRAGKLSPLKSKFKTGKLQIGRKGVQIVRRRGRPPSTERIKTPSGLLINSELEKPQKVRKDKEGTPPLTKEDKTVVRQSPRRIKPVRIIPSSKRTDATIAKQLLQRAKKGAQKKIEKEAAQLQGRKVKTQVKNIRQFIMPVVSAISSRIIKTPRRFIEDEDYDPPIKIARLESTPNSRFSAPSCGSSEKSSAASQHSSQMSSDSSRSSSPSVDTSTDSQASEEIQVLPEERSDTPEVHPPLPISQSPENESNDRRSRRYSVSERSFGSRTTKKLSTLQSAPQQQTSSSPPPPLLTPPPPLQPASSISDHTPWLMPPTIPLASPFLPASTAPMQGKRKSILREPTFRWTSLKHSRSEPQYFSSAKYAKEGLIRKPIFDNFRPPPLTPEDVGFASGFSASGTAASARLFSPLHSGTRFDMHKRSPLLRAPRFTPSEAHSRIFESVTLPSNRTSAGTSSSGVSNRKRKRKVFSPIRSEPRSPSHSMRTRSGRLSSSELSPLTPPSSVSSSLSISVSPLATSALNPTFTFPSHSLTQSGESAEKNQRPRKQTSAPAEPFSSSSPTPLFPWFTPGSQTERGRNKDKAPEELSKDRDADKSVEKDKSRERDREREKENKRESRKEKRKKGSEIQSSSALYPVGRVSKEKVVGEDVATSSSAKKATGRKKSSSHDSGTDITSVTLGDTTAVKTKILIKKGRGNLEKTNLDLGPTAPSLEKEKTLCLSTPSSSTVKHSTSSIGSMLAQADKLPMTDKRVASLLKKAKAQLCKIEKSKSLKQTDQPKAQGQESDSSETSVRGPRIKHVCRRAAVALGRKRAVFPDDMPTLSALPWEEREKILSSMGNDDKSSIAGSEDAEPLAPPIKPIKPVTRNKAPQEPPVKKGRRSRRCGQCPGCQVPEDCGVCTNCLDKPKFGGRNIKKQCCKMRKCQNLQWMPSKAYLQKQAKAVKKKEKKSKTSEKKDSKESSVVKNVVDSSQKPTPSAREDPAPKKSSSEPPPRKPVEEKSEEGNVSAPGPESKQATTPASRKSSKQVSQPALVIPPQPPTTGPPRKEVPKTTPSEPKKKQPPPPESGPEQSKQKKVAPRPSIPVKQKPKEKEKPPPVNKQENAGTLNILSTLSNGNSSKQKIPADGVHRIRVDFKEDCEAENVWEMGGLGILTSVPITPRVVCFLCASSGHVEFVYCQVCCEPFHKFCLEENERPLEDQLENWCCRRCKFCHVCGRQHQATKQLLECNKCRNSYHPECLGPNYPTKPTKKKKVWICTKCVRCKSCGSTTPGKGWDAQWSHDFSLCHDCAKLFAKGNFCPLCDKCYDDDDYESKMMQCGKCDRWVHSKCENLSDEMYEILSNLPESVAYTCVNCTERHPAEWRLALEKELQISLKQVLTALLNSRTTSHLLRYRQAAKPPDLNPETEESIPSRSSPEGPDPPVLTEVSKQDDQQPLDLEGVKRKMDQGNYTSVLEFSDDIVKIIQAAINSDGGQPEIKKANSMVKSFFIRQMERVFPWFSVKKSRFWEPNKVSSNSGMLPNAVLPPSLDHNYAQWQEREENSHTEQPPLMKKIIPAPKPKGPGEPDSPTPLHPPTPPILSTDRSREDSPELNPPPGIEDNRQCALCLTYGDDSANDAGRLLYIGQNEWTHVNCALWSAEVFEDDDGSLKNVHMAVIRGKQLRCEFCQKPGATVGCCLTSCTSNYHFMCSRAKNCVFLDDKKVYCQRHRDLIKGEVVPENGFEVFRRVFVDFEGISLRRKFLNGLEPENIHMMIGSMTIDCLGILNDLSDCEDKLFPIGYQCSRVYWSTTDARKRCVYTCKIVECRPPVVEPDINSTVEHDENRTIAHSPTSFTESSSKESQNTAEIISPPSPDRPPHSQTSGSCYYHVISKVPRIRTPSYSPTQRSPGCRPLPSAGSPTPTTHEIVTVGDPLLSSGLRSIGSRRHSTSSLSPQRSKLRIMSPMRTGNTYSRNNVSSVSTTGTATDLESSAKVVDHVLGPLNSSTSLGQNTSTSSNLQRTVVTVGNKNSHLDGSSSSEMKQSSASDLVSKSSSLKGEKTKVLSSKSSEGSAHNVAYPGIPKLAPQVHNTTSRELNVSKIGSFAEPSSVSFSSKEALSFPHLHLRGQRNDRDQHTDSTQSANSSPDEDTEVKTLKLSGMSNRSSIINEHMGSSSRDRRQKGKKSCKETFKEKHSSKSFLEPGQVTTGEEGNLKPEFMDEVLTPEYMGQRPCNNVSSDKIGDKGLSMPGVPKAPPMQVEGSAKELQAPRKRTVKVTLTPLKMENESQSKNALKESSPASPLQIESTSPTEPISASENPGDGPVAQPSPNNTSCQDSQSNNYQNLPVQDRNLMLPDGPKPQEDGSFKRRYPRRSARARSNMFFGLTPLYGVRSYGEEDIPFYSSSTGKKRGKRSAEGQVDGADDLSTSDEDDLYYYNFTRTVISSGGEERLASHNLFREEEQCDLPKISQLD
T1 sequence (Q03164 2719-3969 partner limits assumed): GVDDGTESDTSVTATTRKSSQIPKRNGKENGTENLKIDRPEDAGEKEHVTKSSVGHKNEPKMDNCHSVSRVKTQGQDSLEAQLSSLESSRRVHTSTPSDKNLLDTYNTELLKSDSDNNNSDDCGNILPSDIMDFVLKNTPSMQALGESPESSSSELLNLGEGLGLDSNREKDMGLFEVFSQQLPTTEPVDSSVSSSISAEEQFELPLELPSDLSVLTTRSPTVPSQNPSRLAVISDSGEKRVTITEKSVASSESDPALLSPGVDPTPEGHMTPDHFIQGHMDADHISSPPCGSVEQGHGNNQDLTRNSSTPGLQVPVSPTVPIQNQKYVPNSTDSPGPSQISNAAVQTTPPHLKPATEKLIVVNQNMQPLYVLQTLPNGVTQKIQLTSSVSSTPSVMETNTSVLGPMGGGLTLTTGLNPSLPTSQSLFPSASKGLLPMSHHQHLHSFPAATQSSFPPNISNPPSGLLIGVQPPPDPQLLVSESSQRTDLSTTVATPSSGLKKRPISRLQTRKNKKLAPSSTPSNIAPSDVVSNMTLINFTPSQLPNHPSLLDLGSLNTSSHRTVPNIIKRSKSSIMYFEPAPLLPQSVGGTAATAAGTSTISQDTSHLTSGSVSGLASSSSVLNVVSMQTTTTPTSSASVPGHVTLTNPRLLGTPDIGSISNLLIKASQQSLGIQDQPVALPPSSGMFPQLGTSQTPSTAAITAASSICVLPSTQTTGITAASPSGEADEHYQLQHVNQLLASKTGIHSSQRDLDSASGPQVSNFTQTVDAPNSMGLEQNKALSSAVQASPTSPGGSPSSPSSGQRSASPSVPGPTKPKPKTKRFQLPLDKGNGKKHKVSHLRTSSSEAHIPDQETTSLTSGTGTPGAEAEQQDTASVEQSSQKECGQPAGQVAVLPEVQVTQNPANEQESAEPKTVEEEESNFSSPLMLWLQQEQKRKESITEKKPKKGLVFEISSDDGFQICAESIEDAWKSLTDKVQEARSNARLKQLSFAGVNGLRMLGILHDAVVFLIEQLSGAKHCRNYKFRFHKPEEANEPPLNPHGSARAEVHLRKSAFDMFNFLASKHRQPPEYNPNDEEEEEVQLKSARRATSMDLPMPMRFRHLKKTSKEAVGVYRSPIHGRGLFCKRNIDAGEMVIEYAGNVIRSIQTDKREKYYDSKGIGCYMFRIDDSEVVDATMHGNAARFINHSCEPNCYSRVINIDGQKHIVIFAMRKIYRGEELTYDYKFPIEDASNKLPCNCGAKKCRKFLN

First: CC(=O)N[C@@H](CO)C(=O)N[C@@H](C)C(=O)N[C@@H](CCCNC(=N)N)C(=O)N[C@@H](Cc1c[nH]c2ccccc12)C(=O)N[C@H]1CCCCCC[C@@H](C(=O)N2CCC[C@H]2C(=O)N[C@@H](CCCNC(=N)N)C(N)=O)NC(=O)[C@H](C)NC(=O)[C@@H]2CCCN2C(=O)[C@H](Cc2ccccc2)NC1=O
Second: CC(=O)N[C@@H](CO)C(=O)N[C@@H](C)C(=O)N[C@@H](CCCNC(=N)N)C(=O)N[C@@H](Cc1c[nH]c2ccccc12)C(=O)N[C@H]1CCCC[C@@H](C(=O)N2CCC[C@H]2C(=O)N[C@@H](CCCNC(=N)N)C(N)=O)NC(=O)[C@H](C)NC(=O)[C@@H]2CCCN2C(=O)[C@H](Cc2ccccc2)NC1=O
The IC50 of the first is 5.4-fold higher: 660 nM for the first, 122 nM for the second. The second is the more potent here.

First: CC(=O)N[C@@H](CO)C(=O)N[C@@H](C)C(=O)N[C@@H](CCCNC(=N)N)C(=O)N[C@@H](Cc1c[nH]c2ccccc12)C(=O)N[C@@H](CCCNC(=N)N)C(=O)N[C@@H](Cc1ccccc1)C(=O)N1CCC[C@H]1C(=O)N[C@@H](C)C(=O)N[C@@H](CCCNC(=N)N)C(=O)N1CCC[C@H]1C(=O)NCC(=O)N[C@H](C(N)=O)[C@@H](C)O
Second: CC(=O)N[C@@H](C)C(=O)N[C@@H](CCCNC(=N)N)C(=O)N[C@@H](Cc1c[nH]c2ccccc12)C(=O)N[C@H]1C/C=C\C[C@@H](C(=O)N2CCC[C@H]2C(=O)N[C@@H](CCCNC(=N)N)C(N)=O)NC(=O)[C@H](C)NC(=O)[C@@H]2CCCN2C(=O)[C@H](Cc2ccccc2)NC1=O (Ac-ARW[AllylGly]FPA[AllylGly]PR-NH2; staple (Z) 4-8)
The IC50 of the first is 1.8-fold lower: 84 nM for the first, 151 nM for the second. The first is the more potent here.

Compared with `CC(=O)N[C@@H](CCCNC(=N)N)C(=O)N[C@@H](Cc1c[nH]c2ccccc12)C(=O)N[C@H]1C/C=C\C[C@@H](C(=O)N2CCC[C@H]2C(=O)N[C@@H](CCCNC(=N)N)C(N)=O)NC(=O)[C@H](C)NC(=O)[C@@H]2CCCN2C(=O)[C@H](Cc2ccccc2)NC1=O` (Ac-RW[AllylGly]FPA[AllylGly]PR-NH2; staple (Z) 3-7), `CC(=O)N[C@@H](CO)C(=O)N[C@@H](C)C(=O)N[C@@H](CCCNC(=N)N)C(=O)N[C@@H](Cc1c[nH]c2ccccc12)C(=O)N[C@H]1C/C=C\C[C@@H](C(=O)N2CCC[C@H]2C(N)=O)NC(=O)[C@H](C)NC(=O)[C@@H]2CCCN2C(=O)[C@H](Cc2ccccc2)NC1=O` (Ac-SARW[AllylGly]FPA[AllylGly]P-NH2; staple (Z) 5-9) is 18-fold higher in IC50: 372 nM for the first, 6800 nM for the second.

Compared with `CC(=O)N[C@@H](CO)C(=O)N[C@@H](C)C(=O)N[C@@H](CCCNC(=N)N)C(=O)N[C@@H](Cc1c[nH]c2ccccc12)C(=O)N[C@H]1C/C=C\C[C@@H](C(=O)N2CCC[C@H]2C(=O)NCC(=O)N[C@H](C(N)=O)[C@@H](C)O)NC(=O)[C@H](C)NC(=O)[C@@H]2CCCN2C(=O)[C@H](Cc2ccccc2)NC1=O` (Ac-SARW[AllylGly]FPA[AllylGly]PGT-NH2; staple (Z) 5-9), `CC(=O)N[C@@H](CO)C(=O)N[C@@H](C)C(=O)N[C@@H](CCCNC(=N)N)C(=O)N[C@@H](Cc1c[nH]c2ccccc12)C(=O)N[C@H]1C/C=C\C[C@@H](C(=O)N2CCC[C@H]2C(=O)N[C@@H](CCCCN)C(N)=O)NC(=O)[C@H](C)NC(=O)[C@@H]2CCCN2C(=O)[C@H](Cc2ccccc2)NC1=O` (Ac-SARW[AllylGly]FPA[AllylGly]PK-NH2; staple (Z) 5-9) is 29-fold lower in IC50: 41000 nM for the first, 1390 nM for the second. The second is the more potent here.

Going from `CC(=O)N[C@@H](CO)C(=O)N[C@@H](C)C(=O)N[C@@H](CCCNC(=N)N)C(=O)N[C@@H](Cc1c[nH]c2ccccc12)C(=O)N[C@H]1C/C=C\C[C@@H](C(=O)N2CCC[C@H]2C(=O)N[C@@H](CCCNC(=N)N)C(N)=O)NC(=O)[C@H](C)NC(=O)[C@@H]2CCCN2C(=O)[C@H](Cc2ccccc2)NC1=O` (Ac-SARW[AllylGly]FPA[AllylGly]PR-NH2; staple (Z) 5-9) to `CC(=O)N[C@@H](CO)C(=O)N[C@@H](C)C(=O)N[C@@H](CCCNC(=N)N)C(=O)N[C@@H](Cc1c[nH]c2ccccc12)C(=O)N[C@H]1C/C=C\C[C@@H](C(=O)N2CCC[C@H]2C(=O)N[C@@H](CCCNC(=N)N)C(=O)N[C@H](C(N)=O)[C@@H](C)O)NC(=O)[C@H](C)NC(=O)[C@@H]2CCCN2C(=O)[C@H](Cc2ccccc2)NC1=O` (Ac-SARW[AllylGly]FPA[AllylGly]PRT-NH2; staple (Z) 5-9), the IC50 rises from 770 nM to 1800 nM (2.3-fold).

Compared with `CC(=O)N[C@@H](CO)C(=O)N[C@@H](C)C(=O)N[C@@H](CCCNC(=N)N)C(=O)N[C@@H](Cc1c[nH]c2ccccc12)C(=O)N[C@H]1C/C=C\C[C@@H](C(=O)N2CCC[C@H]2C(=O)N[C@@H](CCCN)C(N)=O)NC(=O)[C@H](C)NC(=O)[C@@H]2CCCN2C(=O)[C@H](Cc2ccccc2)NC1=O` (Ac-SARW[AllylGly]FPA[AllylGly]P[Orn]-NH2; staple (Z) 5-9), `CC(=O)N[C@@H](CO)C(=O)N[C@@H](C)C(=O)N[C@@H](CCCNC(=N)N)C(=O)N[C@@H](Cc1c[nH]c2ccccc12)C(=O)N[C@H]1C/C=C\CC[C@@H](C(=O)N2CCC[C@H]2C(=O)N[C@@H](CCCNC(=N)N)C(N)=O)NC(=O)[C@H](C)NC(=O)[C@@H]2CCCN2C(=O)[C@H](Cc2ccccc2)NC1=O` (Ac-SARW[AllylGly]FPA[Hag]PR-NH2; staple (Z) 5-9) is 21-fold higher in IC50: 142 nM for the first, 3000 nM for the second.

Compared with `CC(=O)N[C@@H](CO)C(=O)N[C@@H](C)C(=O)N[C@@H](CCCNC(=N)N)C(=O)N[C@@H](Cc1c[nH]c2ccccc12)C(=O)N[C@H]1C/C=C\C[C@@H](C(=O)N2CCC[C@H]2C(=O)N[C@@H](CCCNC(=N)N)C(N)=O)NC(=O)C2(CCC2)NC(=O)[C@@H]2CCCN2C(=O)[C@H](Cc2ccccc2)NC1=O` (Ac-SARW[AllylGly]FP[Ac4c][AllylGly]PR-NH2; staple (Z) 5-9), `CC(=O)N[C@@H](CO)C(=O)N[C@@H](C)C(=O)N[C@@H](CCCNC(=N)N)C(=O)N[C@@H](Cc1c[nH]c2ccccc12)C(=O)N[C@H]1C/C=C\C[C@@H](C(=O)N2CCC[C@H]2C(=O)N[C@@H](CCCNC(=N)N)C(N)=O)NC(=O)[C@H](C)NC(=O)[C@@H]2CCCN2C(=O)[C@H](Cc2cccc(F)c2)NC1=O` (Ac-SARW[AllylGly][Phe(3-F)]PA[AllylGly]PR-NH2; staple (Z) 5-9) is 3.4-fold higher in IC50: 83 nM for the first, 281 nM for the second. The first is the more potent here.

First: CC(=O)N[C@@H](CO)C(=O)N[C@@H](C)C(=O)N[C@@H](CCCNC(=N)N)C(=O)N[C@@H](Cc1c[nH]c2ccccc12)C(=O)N[C@H]1CC/C=C\CC[C@@H](C(=O)N2CCC[C@H]2C(=O)N[C@@H](CCCNC(=N)N)C(N)=O)NC(=O)[C@H](C)NC(=O)[C@@H]2CCCN2C(=O)[C@H](Cc2ccccc2)NC1=O (Ac-SARW[Hag]FPA[Hag]PR-NH2; staple (Z) 5-9)
Second: CC(=O)N[C@@H](Cc1c[nH]c2ccccc12)C(=O)N[C@H]1C/C=C\C[C@@H](C(=O)N2CCC[C@H]2C(=O)N[C@@H](CCCNC(=N)N)C(N)=O)NC(=O)[C@H](C)NC(=O)[C@@H]2CCCN2C(=O)[C@H](Cc2ccccc2)NC1=O (Ac-W[AllylGly]FPA[AllylGly]PR-NH2; staple (Z) 2-6)
The IC50 of the first is 71-fold lower: 1100 nM for the first, 77700 nM for the second. The first is the more potent here.

First: Ac-SARWAFPAAP-NH2
Second: Ac-SARWAFPAAPGT-NH2
The IC50 of the first is 3.2-fold lower: 19000 nM for the first, 61300 nM for the second.

Ac-SARWAFPAAPRT-NH2 and Ac-SARWAFPAGPR-NH2 are within 1.5-fold of each other in IC50: 1700 nM for the first, 1300 nM for the second.

Each molecule was assayed against T1, Menin/Histone-lysine N-methyltransferase MLL (assay: Inhibition of Menin-MLL protein-protein interaction (unknown origin) preincubated for 1 hr in presence of FLSN-MLL4-43 peptide followed by compound addition and measured after 1 hr by fluorescence polarization assay).

First: CC(=O)N[C@@H](C)C(=O)N[C@@H](CCCNC(=N)N)C(=O)N[C@@H](Cc1c[nH]c2ccccc12)C(=O)N[C@H]1CCCC[C@@H](C(=O)N2CCC[C@H]2C(=O)N[C@@H](CCCN)C(=O)N[C@@H](CCCNC(=N)N)C(=O)N[C@@H](CCCNC(=N)N)C(=O)N[C@@H](CCCNC(=N)N)C(N)=O)NC(=O)C2(CCC2)NC(=O)[C@@H]2CCCN2C(=O)[C@H](Cc2cccc(F)c2)NC1=O
Second: CC(=O)N[C@@H](C)C(=O)N[C@@H](CCCNC(=N)N)C(=O)N[C@@H](Cc1c[nH]c2ccccc12)C(=O)N[C@H]1CCCC[C@@H](C(=O)N2CCC[C@H]2C(=O)N[C@@H](CCCN)C(=O)N[C@@H](CCCNC(=N)N)C(N)=O)NC(=O)C2(CCC2)NC(=O)[C@@H]2CCCN2C(=O)[C@H](Cc2cccc(F)c2)NC1=O
The IC50 of the first is 3-fold lower: 4.6 nM for the first, 14 nM for the second.

First: CC(=O)N[C@@H](CO)C(=O)N[C@@H](C)C(=O)N[C@@H](CCCNC(=N)N)C(=O)N[C@@H](Cc1c[nH]c2ccccc12)C(=O)N[C@H]1CCCC[C@@H](C(=O)N2CCC[C@H]2C(=O)N[C@@H](CCCN)C(N)=O)NC(=O)C2(CCC2)NC(=O)[C@@H]2CCCN2C(=O)[C@H](Cc2cccc(F)c2)NC1=O
Second: CC(=O)N[C@@H](CO)C(=O)N[C@@H](C)C(=O)N[C@@H](CCCNC(=N)N)C(=O)N[C@@H](Cc1c[nH]c2ccccc12)C(=O)N[C@@H](CCCNC(=N)N)C(=O)N[C@@H](Cc1ccccc1)C(=O)N1CCC[C@H]1C(=O)N[C@@H](C)C(=O)N[C@@H](CCCNC(=N)N)C(=O)N1CCC[C@H]1C(=O)NCC(=O)N[C@H](C(N)=O)[C@@H](C)O
The IC50 of the first is 6.3-fold lower: 569 nM for the first, 3590 nM for the second. The first is the more potent here.

First: CC(=O)N[C@@H](C)C(=O)N[C@@H](CCCNC(=N)N)C(=O)N[C@@H](Cc1c[nH]c2ccccc12)C(=O)N[C@H]1C/C=C\C[C@@H](C(=O)N2CCC[C@H]2C(=O)N[C@@H](CCCN)C(N)=O)NC(=O)C2(CCC2)NC(=O)[C@@H]2CCCN2C(=O)[C@H](Cc2cccc(F)c2)NC1=O (Ac-ARW[AllylGly][Phe(3-F)]P[Ac4c][AllylGly]P[Orn]-NH2; staple (Z) 4-8)
Second: CC(=O)N[C@@H](C)C(=O)N[C@@H](CCCNC(=N)N)C(=O)N[C@@H](Cc1c[nH]c2ccccc12)C(=O)N[C@H]1C/C=C\C[C@@H](C(=O)N2CCC[C@H]2C(=O)N[C@@H](CCCN)C(=O)N[C@@H](CCCNC(=N)N)C(N)=O)NC(=O)C2(CCC2)NC(=O)[C@@H]2CCCN2C(=O)[C@H](Cc2cccc(F)c2)NC1=O (Ac-ARW[AllylGly][Phe(3-F)]P[Ac4c][AllylGly]P[Orn]R-NH2; staple (Z) 4-8)
The IC50 of the first is 21-fold higher: 1230 nM for the first, 58 nM for the second.

First: CC(=O)N[C@@H](C)C(=O)N[C@@H](CCCNC(=N)N)C(=O)N[C@@H](Cc1c[nH]c2ccccc12)C(=O)N[C@H]1C/C=C\C[C@@H](C(=O)N2CCC[C@H]2C(=O)N[C@@H](CCCN)C(=O)N[C@@H](CCCNC(=N)N)C(=O)N[C@@H](CCCNC(=N)N)C(=O)N[C@@H](CCCNC(=N)N)C(N)=O)NC(=O)C2(CCC2)NC(=O)[C@@H]2CCCN2C(=O)[C@H](Cc2cccc(F)c2)NC1=O (Ac-ARW[AllylGly][Phe(3-F)]P[Ac4c][AllylGly]P[Orn]RRR-NH2; staple (Z) 4-8)
Second: CC(=O)N[C@@H](CO)C(=O)N[C@@H](C)C(=O)N[C@@H](CCCNC(=N)N)C(=O)N[C@@H](Cc1c[nH]c2ccccc12)C(=O)N[C@H]1C/C=C\C[C@@H](C(=O)N2CCC[C@H]2C(=O)N[C@@H](CCCN)C(N)=O)NC(=O)C2(CCC2)NC(=O)[C@@H]2CCCN2C(=O)[C@H](Cc2cccc(F)c2)NC1=O (Ac-SARW[AllylGly][Phe(3-F)]P[Ac4c][AllylGly]P[Orn]-NH2; staple (Z) 5-9)
The IC50 of the first is 330-fold lower: 2.35 nM for the first, 777 nM for the second.

With Ac-RWRFPARPGTGRR-NH2 the IC50 was 49 nM.

— ChEMBL document CHEMBL4765443, “Covalent and noncovalent constraints yield a figure eight-like conformation of a peptide inhibiting the menin-MLL interaction” (Eur J Med Chem, 2020)
